Source: ChEMBL document CHEMBL3885881, “DrugMatrix”

Organism: Rattus norvegicus
Assay: DrugMatrix - Regimen: Daily Repeat
Assay type: toxicity, organism-based, Sprague-Dawley
Design: regimen Daily Repeat, gender Male, age 6-8 weeks
Conditions: in vivo, po, route oral GAVAGE, vehicle 100 % WATER; for ABSOLUTE BASOPHIL / ABSOLUTE EOSINOPHIL / ABSOLUTE LYMPHOCYTE / ABSOLUTE MONOCYTE / ABSOLUTE SEGMENTED NEUTROPHIL / BASOPHIL / EOSINOPHIL / ERYTHROCYTE COUNT / HEMATOCRIT / HEMOGLOBIN / LEUKOCYTE COUNT / LYMPHOCYTE / MEAN CORPUSCULAR HEMOGLOBIN / MEAN CORPUSCULAR HEMOGLOBIN CONCENTRATION / MEAN CORPUSCULAR VOLUME / MONOCYTE / NEUTROPHIL / NUCLEATED RED BLOOD CELLS / PLATELET COUNT: tissue Blood; for ALANINE AMINOTRANSFERASE / ALBUMIN / ALKALINE PHOSPHATASE / ASPARTATE AMINOTRANSFERASE / BLOOD UREA NITROGEN / CARBON DIOXIDE / CHLORIDE / CHOLESTEROL / CREATINE PHOSPHOKINASE / CREATININE / GLUCOSE / LACTATE DEHYDROGENASE / LIPASE / PHOSPHORUS / POTASSIUM / SODIUM / TOTAL BILIRUBIN / TOTAL PROTEIN / URIC ACID: tissue Plasma
[1] = 0 mg/kg, 72 h, dose level Control, time 3 day
[2] = 0 mg/kg, 120 h, dose level Control, time 5 day
[3] = 120 mg/kg, 72 h, dose level Low, time 3 day

With `Cc1onc(-c2ccccc2Cl)c1C(=O)N[C@@H]1C(=O)N2[C@@H]1SC(C)(C)[C@@H]2C(=O)O` [CLOXACILLIN] the “ABSOLUTE BASOPHIL” value [1] was 0 CELLS/uL, the “ABSOLUTE EOSINOPHIL” value [1] was 40 CELLS/uL and the “ABSOLUTE LYMPHOCYTE” value [1] was 13599.5 CELLS/uL. For the same compound, the “ABSOLUTE MONOCYTE” value [1] was 239.33 CELLS/uL, the “ABSOLUTE SEGMENTED NEUTROPHIL” value [1] was 1021.17 CELLS/uL and the BASOPHIL [1] was 0%. The EOSINOPHIL [1] was 0.33%, the “ERYTHROCYTE COUNT” value [1] was 5.71 x10E6/uL and the HEMATOCRIT [1] was 36.35%. For the same compound, the HEMOGLOBIN [1] was 14.05 G/DL, the “LEUKOCYTE COUNT” value [1] was 14.9 x10E3/uL and the LYMPHOCYTE [1] was 91%. For the same compound, the “MEAN CORPUSCULAR HEMOGLOBIN” value [1] was 24.62 pg, the “MEAN CORPUSCULAR HEMOGLOBIN CONCENTRATION” value [1] was 38.65 G/DL and the “MEAN CORPUSCULAR VOLUME” value [1] was 63.7 fL. For the same compound, the MONOCYTE [1] was 1.5%, the NEUTROPHIL [1] was 7.17% and the “NUCLEATED RED BLOOD CELLS” value [1] was 0.33 /100WBC. For the same compound, the “PLATELET COUNT” value [1] was 1225.5 x10E3/uL, the “ALANINE AMINOTRANSFERASE” value [1] was 48.5 u/L and the ALBUMIN [1] was 4.18 G/DL. For the same compound, the “ALKALINE PHOSPHATASE” value [1] was 390.83 u/L, the “ASPARTATE AMINOTRANSFERASE” value [1] was 89 u/L and the “BLOOD UREA NITROGEN” value [1] was 14.83 mg/dL. The “CARBON DIOXIDE” value [1] was 24.83 mmol/L, the CHLORIDE [1] was 100.83 MEQ/L and the CHOLESTEROL [1] was 72.5 mg/dL. The “CREATINE PHOSPHOKINASE” value [1] was 503 u/L, the CREATININE [1] was 0.2 mg/dL and the GLUCOSE [1] was 163 mg/dL. For the same compound, the “LACTATE DEHYDROGENASE” value [1] was 316.83 u/L, the LIPASE [1] was 9.83 u/L and the PHOSPHORUS [1] was 11.57 mg/dL. For the same compound, the POTASSIUM [1] was 6.16 MEQ/L, the SODIUM [1] was 142.62 MEQ/L and the “TOTAL BILIRUBIN” value [1] was 0.2 mg/dL. For the same compound, the “TOTAL PROTEIN” value [1] was 5.8 G/DL, the “URIC ACID” value [1] was 1.65 mg/dL and the “ABSOLUTE BASOPHIL” value [2] was 0 CELLS/uL. For the same compound, the “ABSOLUTE EOSINOPHIL” value [2] was 21 CELLS/uL, the “ABSOLUTE LYMPHOCYTE” value [2] was 14288.5 CELLS/uL and the “ABSOLUTE MONOCYTE” value [2] was 205.33 CELLS/uL. For the same compound, the “ABSOLUTE SEGMENTED NEUTROPHIL” value [2] was 968.5 CELLS/uL, the BASOPHIL [2] was 0% and the EOSINOPHIL [2] was 0.17%. The “ERYTHROCYTE COUNT” value [2] was 5.83 x10E6/uL, the HEMATOCRIT [2] was 36.53% and the HEMOGLOBIN [2] was 14.4 G/DL. For the same compound, the “LEUKOCYTE COUNT” value [2] was 15.48 x10E3/uL, the LYMPHOCYTE [2] was 92% and the “MEAN CORPUSCULAR HEMOGLOBIN” value [2] was 24.72 pg. The “MEAN CORPUSCULAR HEMOGLOBIN CONCENTRATION” value [2] was 39.43 G/DL, the “MEAN CORPUSCULAR VOLUME” value [2] was 62.68 fL and the MONOCYTE [2] was 1.33%. For the same compound, the NEUTROPHIL [2] was 6.5%, the “NUCLEATED RED BLOOD CELLS” value [2] was 0.17 /100WBC and the “PLATELET COUNT” value [2] was 1280.5 x10E3/uL. The “ALANINE AMINOTRANSFERASE” value [2] was 50 u/L, the ALBUMIN [2] was 4.28 G/DL and the “ALKALINE PHOSPHATASE” value [2] was 380.17 u/L. The “ASPARTATE AMINOTRANSFERASE” value [2] was 82.67 u/L, the “BLOOD UREA NITROGEN” value [2] was 15.33 mg/dL and the “CARBON DIOXIDE” value [2] was 27.17 mmol/L. For the same compound, the CHLORIDE [2] was 100.33 MEQ/L, the CHOLESTEROL [2] was 60.67 mg/dL and the “CREATINE PHOSPHOKINASE” value [2] was 441.5 u/L. The CREATININE [2] was 0.16 mg/dL, the GLUCOSE [2] was 146 mg/dL and the “LACTATE DEHYDROGENASE” value [2] was 189.33 u/L. The LIPASE [2] was 9.17 u/L, the PHOSPHORUS [2] was 11.67 mg/dL and the POTASSIUM [2] was 6.86 MEQ/L. For the same compound, the SODIUM [2] was 142.33 MEQ/L, the “TOTAL BILIRUBIN” value [2] was 0.2 mg/dL and the “TOTAL PROTEIN” value [2] was 6.12 G/DL. The “URIC ACID” value [2] was 1.82 mg/dL, the “ABSOLUTE BASOPHIL” value [3] was 0 CELLS/uL and the “ABSOLUTE EOSINOPHIL” value [3] was 0 CELLS/uL. The “ABSOLUTE LYMPHOCYTE” value [3] was 13421.33 CELLS/uL, the “ABSOLUTE MONOCYTE” value [3] was 92.33 CELLS/uL and the “ABSOLUTE SEGMENTED NEUTROPHIL” value [3] was 1186.33 CELLS/uL. For the same compound, the BASOPHIL [3] was 0%, the EOSINOPHIL [3] was 0% and the “ERYTHROCYTE COUNT” value [3] was 5.89 x10E6/uL. For the same compound, the HEMATOCRIT [3] was 36%, the HEMOGLOBIN [3] was 13.83 G/DL and the “LEUKOCYTE COUNT” value [3] was 14.7 x10E3/uL. For the same compound, the LYMPHOCYTE [3] was 90.67%, the “MEAN CORPUSCULAR HEMOGLOBIN” value [3] was 23.47 pg and the “MEAN CORPUSCULAR HEMOGLOBIN CONCENTRATION” value [3] was 38.4 G/DL. For the same compound, the “MEAN CORPUSCULAR VOLUME” value [3] was 61.07 fL, the MONOCYTE [3] was 0.67% and the NEUTROPHIL [3] was 8.67%. The “NUCLEATED RED BLOOD CELLS” value [3] was 0 /100WBC, the “PLATELET COUNT” value [3] was 1271.67 x10E3/uL and the “ALANINE AMINOTRANSFERASE” value [3] was 68 u/L. The ALBUMIN [3] was 4.1 G/DL, the “ALKALINE PHOSPHATASE” value [3] was 359 u/L and the “ASPARTATE AMINOTRANSFERASE” value [3] was 111 u/L. For the same compound, the “BLOOD UREA NITROGEN” value [3] was 15.33 mg/dL, the “CARBON DIOXIDE” value [3] was 23 mmol/L and the CHLORIDE [3] was 103 MEQ/L. For the same compound, the CHOLESTEROL [3] was 79.33 mg/dL, the “CREATINE PHOSPHOKINASE” value [3] was 603.33 u/L and the CREATININE [3] was 0.17 mg/dL. For the same compound, the GLUCOSE [3] was 150.33 mg/dL, the “LACTATE DEHYDROGENASE” value [3] was 726 u/L and the LIPASE [3] was 9 u/L. It also gave a PHOSPHORUS [3] of 13.1 mg/dL, a POTASSIUM [3] of 6.07 MEQ/L and an SODIUM [3] of 143.5 MEQ/L. The “TOTAL BILIRUBIN” value [3] was 0.17 mg/dL, the “TOTAL PROTEIN” value [3] was 5.77 G/DL and the “URIC ACID” value [3] was 1.8 mg/dL.
